Experimental findings from the supplement of paper PMC9663587 are described below.
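Wherever GR50, 72 h is given: breast cancer and non-malignant breast epithelial cell lines, Deep Dye Drop or Dye Drop imaging, nine half-log doses, GR normalized to time-zero plates and DMSO-only controls.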

Compound in one assay: CNCc1ccc(-c2[nH]c3cc(F)cc4c3c2CCNC4=O)cc1 [Rucaparib]
Assay: not given
Settings: not given
HCC202: the “GR50, 72 h” value is more than 10 µM.

For SUM185PE, the “GR50, 72 h” value was more than 10 µM.

Compound in the next assay: CN1CCN(CCOc2cc(OC3CCOCC3)c3c(Nc4c(Cl)ccc5c4OCO5)ncnc3c2)CC1 [Saracatinib/AZD0530]
Assay: not given
Settings: not given
In the case of CAL851, the “GR50, 72 h” value was determined as 0.871 µM.

As to HCC202, the “GR50, 72 h” value came to 0.475 µM.

On to HCC1428, for which the “GR50, 72 h” value was more than 10 µM.

In the case of HCC1500, the “GR50, 72 h” value was found to be 0.259 µM.

MDAMB157: the “GR50, 72 h” value was found to be 5.23 µM.

As to MDAMB361, the “GR50, 72 h” value stood at 0.426 µM.

Regarding SUM185PE, the “GR50, 72 h” value was 1.65 µM.

As for SUM1315, the “GR50, 72 h” value came to 1.39 µM.

Compound in the next assay: CN1CC[C@H](c2c(O)cc(O)c3c(=O)cc(-c4ccccc4Cl)oc23)[C@H](O)C1 [Flavopiridol]
Assay: not given
Settings: not given
In the case of CAL851, the “GR50, 72 h” value was 0.17 µM.

Consider HCC202, for which the “GR50, 72 h” value came out at 0.14 µM.

Consider MDAMB361, for which the “GR50, 72 h” value was 0.0887 µM.

For the cell line SUM185PE, the “GR50, 72 h” value is 0.149 µM.

As for SUM1315, the “GR50, 72 h” value was determined as 0.104 µM.

Compound in a further assay: CCOc1cc2ncc(C#N)c(Nc3ccc(OCc4ccccn4)c(Cl)c3)c2cc1NC(=O)/C=C/CN(C)C [Neratinib/HKI272]
Assay: not given
Settings: not given
Take CAL851: the “GR50, 72 h” value was found to be 0.0339 µM.

Regarding HCC202, the “GR50, 72 h” value stood at 0.0317 µM.

For the cell line HCC1428, the “GR50, 72 h” value came out at 1.43 µM.

For HCC1500, the “GR50, 72 h” value is 0.785 µM.

As to MDAMB157, the “GR50, 72 h” value was determined as 0.796 µM.

As to MDAMB361, the “GR50, 72 h” value is 0.152 µM.

With SUM185PE, the “GR50, 72 h” value turned out to be 0.537 µM.

Turning to SUM1315, the “GR50, 72 h” value turned out to be 0.0922 µM.

Compound in a further assay: CN(C)CC[C@H](CSc1ccccc1)Nc1ccc(S(=O)(=O)NC(=O)c2ccc(N3CCN(Cc4ccccc4-c4ccc(Cl)cc4)CC3)cc2)cc1[N+](=O)[O-] [ABT-737]
Assay: not given
Settings: not given
Turning to CAL851, the “GR50, 72 h” value is more than 10 µM.

In the case of HCC202, the “GR50, 72 h” value is more than 10 µM.

For the cell line HCC1428, the “GR50, 72 h” value came out at 4 µM.

As to HCC1500, the “GR50, 72 h” value amounted to 0.00851 µM.

As to MDAMB157, the “GR50, 72 h” value amounted to 6.41 µM.

Turning to MDAMB361, the “GR50, 72 h” value was more than 10 µM.

With SUM185PE, the “GR50, 72 h” value stood at 0.927 µM.

With SUM1315, the “GR50, 72 h” value amounted to 5.96 µM.

Compound in a further assay: CN(C)C/C=C/C(=O)Nc1ccc(O[C@@H]2CCC[C@@H](Nc3ncc(Cl)c(-c4c[nH]c5ccccc45)n3)C2)cc1 [BSJ-01-175]
Assay: not given
Settings: not given
For CAL851, the “GR50, 72 h” value amounted to 0.0129 µM.

As for HCC202, the “GR50, 72 h” value is 0.0167 µM.

Regarding MDAMB361, the “GR50, 72 h” value amounted to 0.00163 µM.

Regarding SUM185PE, the “GR50, 72 h” value stood at 0.103 µM.

Regarding SUM1315, the “GR50, 72 h” value stood at 0.419 µM.

Compound in the next assay: CN(C)C/C=C/C(=O)Nc1ccc(C(=O)Nc2cccc(Nc3ncc(Cl)c(-c4c[nH]c5ccccc45)n3)c2)cc1 [THZ1]
Assay: not given
Settings: not given
In the case of CAL851, the “GR50, 72 h” value stood at 0.0085 µM.

Take HCC202: the “GR50, 72 h” value came out at 0.0212 µM.

MDAMB361: the “GR50, 72 h” value was found to be 0.00852 µM.

With SUM185PE, the “GR50, 72 h” value was 0.0143 µM.

SUM1315: the “GR50, 72 h” value was found to be 0.251 µM.

Compound in a further assay: CC1=CN2C(=O)C=C(N=C2C(=C1)C(C)NC3=CC=CC=C3)N4CCOCC4 [TGX221]
Assay: not given
Settings: not given
As to CAL851, the “GR50, 72 h” value was more than 10 µM.

As to HCC202, the “GR50, 72 h” value is more than 10 µM.

In the case of HCC1428, the “GR50, 72 h” value is more than 10 µM.

Turning to HCC1500, the “GR50, 72 h” value was more than 10 µM.

For the cell line MDAMB157, the “GR50, 72 h” value was more than 10 µM.

For the cell line MDAMB361, the “GR50, 72 h” value is more than 10 µM.

Turning to SUM185PE, the “GR50, 72 h” value was more than 10 µM.

Regarding SUM1315, the “GR50, 72 h” value was more than 10 µM.

Compound in another assay: CC(=O)c1c(C)c2cnc(Nc3ccc(N4CCN(CCOCCOCCOCCNC(=O)COc5cccc6c5C(=O)N(C5CCC(=O)NC5=O)C6=O)CC4)cn3)nc2n(C2CCCC2)c1=O [BSJ-03-123]
Assay: not given
Settings: not given
CAL851: the “GR50, 72 h” value worked out at 0.431 µM.

For the cell line HCC202, the “GR50, 72 h” value was found to be 3.36 µM.

With MDAMB361, the “GR50, 72 h” value was determined as 0.297 µM.

Take SUM185PE: the “GR50, 72 h” value is more than 10 µM.

Regarding SUM1315, the “GR50, 72 h” value came out at 2.05 µM.

Compound in a further assay: COc1ccc2c(c1)[C@]1(C[C@H]1c1ccc3c(/C=C/c4ccc(CN5C[C@@H](C)O[C@@H](C)C5)cc4)n[nH]c3c1)C(=O)N2
Assay: not given
Settings: not given
CAL851: the “GR50, 72 h” value was found to be 0.00209 µM.

Turning to MDAMB361, the “GR50, 72 h” value was determined as 0.00573 µM.

In the case of SUM1315, the “GR50, 72 h” value stood at 0.00184 µM.

Compound in the next assay: CN(C)C(=O)c1cc2cnc(Nc3ccc(N4CCNCC4)cn3)nc2n1C1CCCC1 [LEE011/Ribociclib]
Nature of the assay: GR value, 72 h; higher = faster growth (1 = untreated, <0 = killing).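 Further: breast cancer and non-malignant breast epithelial lines, nine half-log doses, viable cells counted by Hoechst and LIVE/DEAD dye imaging versus time-zero plates and DMSO controls.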 The following applies: 0.001 µM.
For CAL851, the GR value was found to be 1.09 GR.

Regarding HCC202, the GR value was 0.881 GR.

For MDAMB361, the GR value is 0.49 GR.

As to SUM185PE, the GR value was determined as 0.867 GR.

With SUM1315, the GR value stood at 0.841 GR.

The assay is the same for the next values; noted with them: 0.003162 µM.
In the case of CAL851, the GR value came out at 0.939 GR.

With HCC202, the GR value is 1.03 GR.

Regarding MDAMB361, the GR value turned out to be 0.396 GR.

As to SUM185PE, the GR value came to 1.04 GR.

Consider SUM1315, for which the GR value worked out at 0.69 GR.

The assay is the same for the next values; noted with them: 0.01 µM.
With CAL851, the GR value amounted to 0.859 GR.

On to HCC202, for which the GR value amounted to 1.03 GR.

Regarding MDAMB361, the GR value stood at 0.306 GR.

Take SUM185PE: the GR value was determined as 0.798 GR.

In the case of SUM1315, the GR value stood at 0.764 GR.

The assay is the same for the next values; noted with them: 0.03162 µM.
CAL851: the GR value was found to be 1.1 GR.

In the case of HCC202, the GR value is 0.891 GR.

Consider MDAMB361, for which the GR value turned out to be 0.435 GR.

Regarding SUM185PE, the GR value amounted to 0.942 GR.

For the cell line SUM1315, the GR value was 0.763 GR.

Staying with this assay, now noted: 0.1 µM.
CAL851: the GR value was determined as 0.931 GR.

Regarding HCC202, the GR value came to 1.03 GR.

For the cell line MDAMB361, the GR value was 0.287 GR.

With SUM185PE, the GR value stood at 1 GR.

SUM1315: the GR value stood at 0.671 GR.

Staying with this assay, now noted: 0.3162 µM.
Consider CAL851, for which the GR value came to 0.775 GR.

Turning to HCC202, the GR value came out at 0.883 GR.

Take MDAMB361: the GR value is 0.0812 GR.

Regarding SUM185PE, the GR value worked out at 0.948 GR.

Consider SUM1315, for which the GR value amounted to 0.57 GR.

The same assay, now with this note: 1 µM.
In the case of CAL851, the GR value amounted to 0.874 GR.

In the case of HCC202, the GR value worked out at 0.833 GR.

For MDAMB361, the GR value was 0.176 GR.

With SUM185PE, the GR value was 0.913 GR.

As to SUM1315, the GR value is 0.582 GR.

Still in this assay, the particulars now being: 3.162 µM.
With CAL851, the GR value worked out at 1.04 GR.

In the case of HCC202, the GR value is 0.813 GR.

In the case of MDAMB361, the GR value was -0.0126 GR.

Regarding SUM185PE, the GR value was 0.832 GR.

With SUM1315, the GR value is 0.527 GR.

Still in this assay, the particulars now being: 10 µM.
For the cell line CAL851, the GR value amounted to 1.11 GR.

Turning to HCC202, the GR value stood at 0.829 GR.

With MDAMB361, the GR value was determined as 0.2 GR.

With SUM185PE, the GR value amounted to 0.846 GR.

As to SUM1315, the GR value stood at 0.445 GR.

Compound in another assay: CC(=O)c1c(C)c2cnc(Nc3ccc(N4CCNCC4)cn3)nc2n(C2CCCC2)c1=O
Described as above. The conditions noted are these: 0.0003162 µM.
In the case of CAL851, the GR value came out at 1.05 GR.

With HCC202, the GR value amounted to 0.895 GR.

For HCC1428, the GR value turned out to be 1.05 GR.

Consider HCC1500, for which the GR value amounted to 1.03 GR.

Take MDAMB157: the GR value is 0.945 GR.

As to MDAMB361, the GR value was determined as 0.963 GR.

As to SUM185PE, the GR value was 1 GR.

Take SUM1315: the GR value is 1.07 GR.

The assay is the same for the next values; noted with them: 0.001 µM.
On to CAL851, for which the GR value was determined as 1.07 GR.

For the cell line HCC202, the GR value was 1 GR.

Regarding HCC1428, the GR value amounted to 1.07 GR.

Turning to HCC1500, the GR value is 1.16 GR.

MDAMB157: the GR value turned out to be 0.976 GR.

For MDAMB361, the GR value came to 1.12 GR.

As for SUM185PE, the GR value was 1.03 GR.

On to SUM1315, for which the GR value worked out at 0.996 GR.

The same assay, now with this note: 0.003162 µM.
In the case of CAL851, the GR value amounted to 1.13 GR.

Turning to HCC202, the GR value was found to be 0.904 GR.

Take HCC1428: the GR value was 1.14 GR.

HCC1500: the GR value amounted to 1.19 GR.

As for MDAMB157, the GR value amounted to 0.969 GR.

With MDAMB361, the GR value came to 0.976 GR.
